# Test results as given in patent US12715849B2, “Herbicidal tetrazole compounds” (SYNGENTA CROP PROTECTION AG, priority 2020, dated 2026).
# Experiments:
# Experiment in all cases: Glasshouse herbicidal test, pre- and post-emergence (Table B1)
# Format in all cases: in vivo
# Setaria faberi (SETFA) = conditions: 130 g/h, evaluated after 13 days; for percentage damage caused to the plant, POST Application SETFA: post-emergence; for percentage damage caused to the plant, PRE Application SETFA: pre-emergence
# Experimental: (§1) Seeds of a variety of test species are sown in standard soil in pots (Lolium perenne (LOLPE), Amaranthus retoflexus (AMARE), Amaranthus palmeri (AMAPA), Ablution theophrasti (ABUTH), Setaria faberi (SETFA), Echinochloa crus-galli (ECHCG), Ipomoea hederacea (IPOHE)). After cultivation for one day (pre-emergence) or after 8 days cultivation (post-emergence) under controlled conditions in a glasshouse (at 24/16° C., day/night; 14 hours light; 65% humidity), the plants are sprayed with an aqueous spray solution derived from the formulation of the technical active ingredient in acetone/water (50:50) solution containing 0.5% Tween 20 (polyoxyethelyene sorbitan monolaurate, CAS RN 9005-64-5). Compounds are applied at 130 g/h unless otherwise indicated. The test plants are then grown in a glasshouse under controlled conditions in a glasshouse (at 24/16° C., day/night; 14 hours light; 65% humidity) and watered twice daily. After 13 days for pre and post-emergence, the test is evaluated for the percentage damage caused to the plant. The biological activities are shown in the following table on a five-point scale (5=80-100%; 4=60-79%; 3=40-59%; 2=20-39%; 1=0-19%).
# [1] = tested on: Ipomoea hederacea (IPOHE); conditions: 130 g/h, evaluated after 13 days; for percentage damage caused to the plant, POST Application IPOHE: post-emergence; for percentage damage caused to the plant, PRE Application IPOHE: pre-emergence
# Experimental: as §1
# [2] = tested on: Amaranthus palmeri (AMAPA); conditions: 130 g/h, evaluated after 13 days; for percentage damage caused to the plant, POST Application AMAPA: post-emergence; for percentage damage caused to the plant, PRE Application AMAPA: pre-emergence
# Experimental: as §1
# [3] = tested on: Echinochloa crus-galli (ECHCG); conditions: 130 g/h, evaluated after 13 days; for percentage damage caused to the plant, POST Application ECHCG: post-emergence; for percentage damage caused to the plant, PRE Application ECHCG: pre-emergence
# Experimental: as §1
# [4] = tested on: Amaranthus retoflexus (AMARE); conditions: 130 g/h, evaluated after 13 days; for percentage damage caused to the plant, POST Application AMARE: post-emergence; for percentage damage caused to the plant, PRE Application AMARE: pre-emergence
# Experimental: as §1
Structure (SMILES),"percentage damage caused to the plant, POST Application SETFA (Setaria faberi (SETFA))","percentage damage caused to the plant, PRE Application SETFA (Setaria faberi (SETFA))","percentage damage caused to the plant, POST Application IPOHE [1]","percentage damage caused to the plant, PRE Application IPOHE [1]","percentage damage caused to the plant, POST Application AMAPA [2]","percentage damage caused to the plant, PRE Application AMAPA [2]","percentage damage caused to the plant, POST Application ECHCG [3]","percentage damage caused to the plant, PRE Application ECHCG [3]","percentage damage caused to the plant, POST Application AMARE [4]","percentage damage caused to the plant, PRE Application AMARE [4]"
CCS(=O)(=O)Nc1c(OC(F)(F)C(F)F)ccc(C(=O)Nc2nnnn2C)c1Cl [Compound 1.086],5 (5=80-100%),4 (4=60-79%),5 (5=80-100%),2 (2=20-39%),5 (5=80-100%),5 (5=80-100%),5 (5=80-100%),5 (5=80-100%),5 (5=80-100%),5 (5=80-100%)
Cn1nnnc1NC(=O)c1ccc(OC(F)(F)F)c(NS(=O)(=O)C2CC2)c1Cl [Compound 1.073],5 (5=80-100%),5 (5=80-100%),5 (5=80-100%),5 (5=80-100%),5 (5=80-100%),5 (5=80-100%),5 (5=80-100%),5 (5=80-100%),5 (5=80-100%),5 (5=80-100%)
Cn1nnnc1NC(=O)c1ccc(OC(F)(F)F)c(NS(=O)(=O)CC2CC2)c1Cl [Compound 1.056],5 (5=80-100%),5 (5=80-100%),5 (5=80-100%),5 (5=80-100%),5 (5=80-100%),5 (5=80-100%),5 (5=80-100%),5 (5=80-100%),5 (5=80-100%),5 (5=80-100%)
CN(c1c(OC(F)F)ccc(C(=O)Nc2nnnn2C)c1Cl)S(C)(=O)=O [Compound 1.071],5 (5=80-100%),5 (5=80-100%),4 (4=60-79%),3 (3=40-59%),5 (5=80-100%),5 (5=80-100%),5 (5=80-100%),5 (5=80-100%),5 (5=80-100%),5 (5=80-100%)
CC(C)CS(=O)(=O)Nc1c(OC(F)(F)F)ccc(C(=O)Nc2nnnn2C)c1Cl [Compound 1.074],5 (5=80-100%),3 (3=40-59%),5 (5=80-100%),3 (3=40-59%),5 (5=80-100%),5 (5=80-100%),5 (5=80-100%),4 (4=60-79%),5 (5=80-100%),5 (5=80-100%)
CCN(c1c(OC(F)(F)F)ccc(C(=O)Nc2nnnn2C)c1Cl)S(=O)(=O)CC [Compound 1.078],5 (5=80-100%),5 (5=80-100%),4 (4=60-79%),4 (4=60-79%),5 (5=80-100%),5 (5=80-100%),–,5 (5=80-100%),5 (5=80-100%),5 (5=80-100%)
CCCS(=O)(=O)Nc1c(OC(F)F)ccc(C(=O)Nc2nnnn2C)c1Cl [Compound 1.069],5 (5=80-100%),4 (4=60-79%),5 (5=80-100%),4 (4=60-79%),5 (5=80-100%),5 (5=80-100%),5 (5=80-100%),5 (5=80-100%),5 (5=80-100%),5 (5=80-100%)
CCCS(=O)(=O)Nc1c(OC(F)(F)F)ccc(C(=O)Nc2nnnn2C)c1Cl [Compound 1.072],5 (5=80-100%),5 (5=80-100%),5 (5=80-100%),5 (5=80-100%),5 (5=80-100%),5 (5=80-100%),–,5 (5=80-100%),5 (5=80-100%),5 (5=80-100%)
CC(C)S(=O)(=O)Nc1c(OC(F)(F)F)ccc(C(=O)Nc2nnnn2C)c1Cl [Compound 1.076],5 (5=80-100%),5 (5=80-100%),4 (4=60-79%),3 (3=40-59%),5 (5=80-100%),5 (5=80-100%),–,5 (5=80-100%),5 (5=80-100%),5 (5=80-100%)
CC(C)CS(=O)(=O)Nc1c(OC(F)F)ccc(C(=O)Nc2nnnn2C)c1Cl [Compound 1.070],4 (4=60-79%),3 (3=40-59%),4 (4=60-79%),2 (2=20-39%),5 (5=80-100%),4 (4=60-79%),4 (4=60-79%),3 (3=40-59%),5 (5=80-100%),4 (4=60-79%)
CCS(=O)(=O)N(C)c1c(OC(F)(F)F)ccc(C(=O)Nc2nnnn2C)c1Cl [Compound 1.080],5 (5=80-100%),5 (5=80-100%),5 (5=80-100%),5 (5=80-100%),5 (5=80-100%),5 (5=80-100%),5 (5=80-100%),5 (5=80-100%),5 (5=80-100%),5 (5=80-100%)
CCS(=O)(=O)N(C)c1c(OC(F)F)ccc(C(=O)Nc2nnnn2C)c1Cl [Compound 1.087],5 (5=80-100%),5 (5=80-100%),4 (4=60-79%),5 (5=80-100%),5 (5=80-100%),5 (5=80-100%),5 (5=80-100%),5 (5=80-100%),5 (5=80-100%),5 (5=80-100%)
CN(c1c(OC(F)(F)F)ccc(C(=O)Nc2nnnn2C)c1Cl)S(C)(=O)=O [Compound 1.077],5 (5=80-100%),5 (5=80-100%),4 (4=60-79%),4 (4=60-79%),5 (5=80-100%),5 (5=80-100%),–,5 (5=80-100%),5 (5=80-100%),5 (5=80-100%)
